These molecules were tested on histone deacetylase (HDAC) (assay: cellular acetylation assay (histone acetylation ELISA in PC3 cells)). Conditions: PC3 human prostate carcinoma cells, compound 1 μM, 24 h incubation, ELISA with antibodies against acetylated histone H3 or H4.
Type: cell-based
Experimental: Therein acetylation of histones is monitored in PC3 cells. High acetylation correlates with inhibition of histone deacetylase by compounds. Cell viability is monitored in parallel to estimate the cytotoxicity of compounds.
PC3 cells, a human prostate carcinoma cell line, are seeded as 1800 cells per well of a 384-well microtiterplate in RPMI 1640 (including 5% FCS, 2 mM glutamine and pen/strep). After 48 h at 37° C. pre-diluted compounds are added to a final concentration of 1 uM. Compounds are pre-diluted in dimethyl sulfoxide (DMSO) resulting in a final concentration of DMSO of 0.5% per well.
After 24 h incubation cell viability is determined by adding cell proliferation reagent WST-1 (Roche Molecular Biochemicals). Another 60 min later the optical density (OD) is measured (450 nm versus 690 nm).
After measurement the cell layer is prepared for the ELISA reaction. Medium is aspirated and cells are fixed in ethanol at −20° C. for 60 min. After washing with PBS/Tween the blocking solution (PBS/5% FCS/Tween) is added and the cell layer is washed again. Antibodies against acetylated histone H3 or H4 (rabbit polyklonal IgG, Upstate Biotechnologie) are added at a dilution of 1:200 for 60 min at 37° C. As a second antibody goat anti rabbit IgG (H+L) humanIgG adsorbed-HRP conjugate (Dako) is used (1:2000 diluted). Cells are washed 3 times and the peroxidase substrate ABTS is allowed to react for 30–60 min at 37° C. The OD is measured at 405 nm.
The percentage of acetylation is calculated after substraction of blank O.D.s: […]

| Structure (SMILES) | cell acetylation (PC3, 1 μM) [% of control] |
| --- | --- |
| CC(=O)Nc1ccc(C(=O)Nc2ccccc2N)cc1 [4-acetylamino-N-(2-amino-phenyl)-benzamide, reference compound] | 152 % of control |
| Nc1ccccc1NC(=O)c1ccc(CON=Cc2ccccc2)s1 [4–6, 5-Benzylideneaminooxymethyl-thiophene-2-carboxylic acid (2-amino-phenyl)-amide] | 180 % of control |
| Nc1ccccc1NC(=O)c1ccc(CON=C2Cc3ccccc3C2)s1 [4–7, 5-(Indan-2-ylideneaminooxymethyl)-thiophene-2-carboxylic acid (2-amino-phenyl)-amide] | 182 % of control |
| COc1ccc(C(C)=NOCc2ccc(C(=O)Nc3ccccc3N)s2)cc1OC [4–9, 5-[1-(3,4-Dimethoxy-phenyl)-ethylideneaminooxymethyl]-thiophene-2-carboxylic acid (2-amino-phenyl)-amide] | 158 % of control |
| COc1ccc(C=NOCc2ccc(C(=O)Nc3ccccc3N)s2)cc1OC [4–12, 5-(3,4-Dimethoxy-benzylideneaminooxymethyl)-thiophene-2-carboxylic acid (2-amino-phenyl)-amide] | 137 % of control |
| Nc1ccccc1NC(=O)c1ccc(CON=Cc2ccc(OC(F)(F)F)cc2)s1 [4–17, 5-(4-Trifluoromethoxy-benzylideneaminooxymethyl)-thiophene-2-carboxylic acid (2-amino-phenyl)-amide] | 127 % of control |
| Nc1ccccc1NC(=O)c1ccc(CON=Cc2cccnc2)s1 [4–21, 5-(Pyridin-3-ylmethyleneaminooxymethyl)-thiophene-2-carboxylic acid (2-amino-phenyl)-amide] | 135 % of control |
| Nc1ccccc1NC(=O)c1ccc(CON=Cc2ccc3c(c2)OCCO3)s1 [Example 3, 5-(2,3-Dihydro-benzo[1,4]dioxin-6-ylmethyleneaminooxymethyl)-thiophene-2-carboxylic acid (2-amino-phenyl)-amide] | 116 % of control |

Reference: patent US7173060B2, “Oxime derivatives and their use as pharmaceutically active agents” (Hoffmann-La Roche Inc., priority 2003, dated 2007)
